Legend:
IRAK4 [1] = target: T1, IRAK4 (Homo sapiens (Human), UniProt Q9NWZ3); assay: IRAK4 degradation in human whole blood monocyte - flow cytometry; type: cell-based; conditions: read-out: IRAK4 degradation in whole blood monocyte-Flow cytometry: Average external Abs IC50
Protocol: (§1) Human whole blood IRAK4 degradation flow assay. Whole blood was collected in heparinized tubes and plated on the same day as draw (day 0). Whole blood was aliquoted into deep well plates. Compound plates were prepared and a 10 point, 5-fold dilution was performed with a final DMSO concentration of 0.1%. Compound was added to whole blood deep well plate, sealed and incubated at 37° C., 5% CO2 for 20 hours (for 4 hour treatment, compounds were prepared and added the following day). Following the treatment incubation period (day 1), BD lyse fix (BD #558049) was added to the whole blood plate, placed on plate shaker for 30 seconds and incubated for 10 mins at room temperature. Whole blood was then spun down and washed two times with PBS/0.5% BSA, aspirated to pellet and placed into −80° C. freezer until further processing for flow. On the flow run day, whole blood plates were thawed and samples were transferred to PCR plates. The pre-perm staining cocktail (CD3 Ax488/CD8 BUV805/CD14 BUV395/CD16/56 BV711/CD19 BV785) was added to samples and incubated for 30 minutes at room temperature. Samples were washed two times and permeabilized with Methanol for 10 minutes at 4° C. Samples were washed two times and the post-perm staining cocktail (CD4 PE/IRAK4 Ax647 BD #560315) was added and incubated for 30 minutes at room temperature. Samples were washed two times with PBS/BSA and run on a BD LSRFortessa. Mononuclear cells are gated by SSCH/FSCH and single cells. Monocytes are then gated through CD14 positive gate and lymphocytes are gated through CD14 negative gate. To determine absolute DC50 and max degradation values, MFI values were normalized to DMSO max and 20 hour 10 μM min control. Twenty hour dose curves were calculated using a 4 parameter logistic regression curve fit, no constraints (Top doses were removed if hook effects were observed and the bottom was constrained to 0).

IRAK4 [2] = target: T1, IRAK4; assay: IRAK4 degradation in human whole blood lymphocyte - flow cytometry; type: cell-based; conditions: read-out: IRAK4 degradation in whole blood lymphocyte-Flow cytometry: Average external Abs IC50
Protocol: as §1

OCI-LY10 = assay: CTG Cell Viability Assay - OCI-LY10; type: cell-based, human; conditions: Homo sapiens, OCI-Ly10, 96 h, OCI-LY10, 4 days; read-out: CTG Cell Viability Assay - OCI-LY10: Average external-IC50
Summary of the method: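 Viability read by CellTiter-Glo luminescence after 4 days at 37° C under 5% CO2 with compound (top 10 μM final, 1:3 steps, 9 doses, DMSO 0.2%). Three-parameter logistic fit gave IC50.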

IRAK4 [3] = target: T1, IRAK4; assay: IRAK4 MSD degradation in OCI-LY10; type: cell-based
Summary of the method: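 Remaining IRAK4 quantified by electrochemiluminescent MSD sandwich assay with two anti-IRAK4 antibodies. Compounds were dosed as 8 concentrations in 1:3 steps from a 1 to 10 μM final top on OCI-LY10 cells, incubated 4 to 24 h at 37° C. under 5% CO2. DC50 fitted with a three-parameter logistic curve.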

IL-6 = IL-6 secretion in hPBMC using R848 stimulation; type: cell-based, human; conditions: Homo sapiens, 20 h, hPBMC, R848 as stim, t = 20 h
IRAK4 [4] = target: T1, IRAK4; assay: hPBMC IRAK4 degradation flow assay; type: cell-based; conditions: hPBMC monocyte
Summary of the method: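 Thawed human PBMCs treated with 10-point, 5-fold compound dilutions (0.1% DMSO) at 37° C. for 20 hours or 4 hours. IRAK4 measured by flow MFI in CD14+ monocytes and CD14− lymphocytes, normalized to DMSO and 10 μM 20-hour control; DC50 and max degradation from 4-parameter logistic fit.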

[5] = OCI-LY10, 4 hrs, MSD, read-out: IRAK4 MSD degradation in OCI-LY10 at 4 hrs: Average external-Abs DC50
[6] = 20 hrs, read-out: IRAK4 degradation in hPBMC monocyte: DC50
[7] = OCI-LY10, 4 hrs, read-out: IRAK4 MSD degradation in OCI-LY10 at 4 hrs: DC50
[8] = 20 hr, flow assay, read-out: IRAK4 degradation in hPBMC monocyte at 20 hr: Average external Abs DC50

T1 sequence (Q9NWZ3 whole entry): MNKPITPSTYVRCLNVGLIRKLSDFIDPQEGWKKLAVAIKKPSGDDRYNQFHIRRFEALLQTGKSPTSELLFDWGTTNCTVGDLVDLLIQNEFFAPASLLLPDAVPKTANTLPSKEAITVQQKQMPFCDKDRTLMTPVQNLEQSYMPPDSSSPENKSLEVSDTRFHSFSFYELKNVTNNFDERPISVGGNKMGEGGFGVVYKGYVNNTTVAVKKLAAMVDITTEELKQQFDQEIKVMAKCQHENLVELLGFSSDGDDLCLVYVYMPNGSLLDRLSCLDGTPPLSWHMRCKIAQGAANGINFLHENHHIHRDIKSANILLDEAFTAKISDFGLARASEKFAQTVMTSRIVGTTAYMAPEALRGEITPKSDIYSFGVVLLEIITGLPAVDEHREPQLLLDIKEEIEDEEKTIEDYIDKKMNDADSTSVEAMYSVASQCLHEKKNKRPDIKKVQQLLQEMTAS

Compound	DC50 (IRAK4 [1])	DC50 (IRAK4 [2])	IC50 (OCI-LY10)	DC50 (IRAK4 [3]; [5])	DC50 (IRAK4 [3]; OCI-LY10, 24 hrs, MSD, read-out: IRAK4 MSD degradation in OCI-LY10 at 24 hrs: Average external-Abs DC50)	IC50 (IRAK4 [1])	IC50 (IL-6)	DC50 (IRAK4 [4]; [6])	DC50 (IRAK4 [3]; [7])	DC50 (IRAK4 [4]; [8])
Cn1c(=O)n(C2CCC(=O)NC2=O)c2cccc(CCCOCCOCCNC(=O)[C@H]3CC[C@H](n4cc(NC(=O)c5coc(-c6ccnc(NCC7CC7)c6)n5)c(C(F)F)n4)CC3)c21 (some centres unmarked) [I-1]	100 to 500 nM	100 to 500 nM	50 to 100 nM	< 10 nM	10 to 100 nM	–	–	–	–	–
O=C1CCC(n2c(=O)oc3cc(CCCOCCOCCNC[C@H]4CC[C@H](n5cc(NC(=O)c6coc(-c7ccnc(NCC8CC8)c7)n6)c(C(F)F)n5)CC4)ccc32)C(=O)N1 (some centres unmarked) [I-3]	–	< 50 nM	> 1000 nM	< 10 nM	–	< 50 nM	–	–	–	–
O=C1CCC(n2c3ccccc3c3c(CCCOCCOCCNC[C@H]4CC[C@H](n5cc(NC(=O)c6coc(-c7ccnc(NCC8CC8)c7)n6)c(C(F)F)n5)CC4)ccnc32)C(=O)N1 (some centres unmarked) [I-92]	100 to 500 nM	500 to 1000 nM	100 to 500 nM	10 to 100 nM	–	–	–	–	–	–
Cn1c(=O)n(C2CCC(=O)NC2=O)c2cccc(OC3CC4(CCN(C[C@H]5CC[C@H](n6cc(NC(=O)c7cnn8ccc(N9C[C@H]%10C[C@@H]9CO%10)nc78)c(C(F)F)n6)CC5)CC4)C3)c21 (some centres unmarked) [I-526]	–	–	> 1000 nM	–	–	–	< 1 nM	< 10 nM	< 10 nM	–
CN1C(=O)C(C2CCC(=O)NC2=O)c2cc(CCCOC3CCN(C[C@H]4CC[C@H](C5N=C(NC(=O)c6cnn7ccc(N8C[C@H]9C[C@@H]8CO9)nc67)C(C(F)F)=N5)CC4)CC3)ccc21 (some centres unmarked) [I-553]	–	–	> 1000 nM	–	–	–	1 to 10 nM	10 to 100 nM	100 to 1000 nM	–
Cn1c(=O)n(C2CCC(=O)NC2=O)c2cccc(CN3CCC(OC4CCN(C[C@H]5CC[C@H](n6cc(NC(=O)c7cnn8ccc(N9C[C@H]%10C[C@@H]9CO%10)nc78)c(C(F)F)n6)CC5)CC4)CC3)c21 (some centres unmarked) [I-513]	–	–	> 1000 nM	–	–	–	< 1 nM	< 10 nM	< 10 nM	–
CC(C)c1nn([C@H]2CC[C@H](CN(C)C[C@@H]3CN(CCCc4ccc5c(c4)n(C)c(=O)n5C4CCC(=O)NC4=O)CCO3)CC2)cc1NC(=O)c1coc(-c2ccnc(NCC3CC3)c2)n1 (stereo partly drawn) [I-94, 2-[2-(Cyclopropylmethylamino)-4-pyridyl]-N-[1-[4-[[[(2R)-4-[3-[1-(2,6-dioxo-3-piperidyl)-3-methyl-2-oxo-benzimidazol-5-yl]propyl]morpholin-2-yl]methyl-methyl-amino]methyl]cyclohexyl]-3-isopropyl-pyrazol-4-yl]oxazole-4-carboxamide]	100 to 500 nM	100 to 500 nM	–	–	–	–	–	–	–	–
Cn1c(=O)n(C2CCC(=O)NC2=O)c2cccc(C#CCN3CCC4(CC3)CN(C[C@H]3CC[C@H](n5cc(NC(=O)c6cnn7ccc(N8C[C@H]9C[C@@H]8CO9)nc67)c(C(F)F)n5)CC3)C4)c21 (some centres unmarked) [I-485]	–	–	> 1000 nM	–	–	–	1 to 10 nM	< 10 nM	10 to 100 nM	–
Cn1c(=O)n(C2CCC(=O)NC2=O)c2cccc(CC3CC4(CCN(C(=O)c5ccc(-n6cc(NC(=O)c7cnn8ccc(N9C[C@H]%10C[C@@H]9CO%10)nc78)c(C(F)F)n6)cc5)CC4)C3)c21 (some centres unmarked) [I-423]	–	–	> 1000 nM	100 to 1000 nM	–	–	1 to 10 nM	–	–	< 10 nM
Cn1c(=O)n(C2CCC(=O)NC2=O)c2cccc(C#CCC3CCN(C[C@H]4CC[C@H](C5N=C(NC(=O)c6cnn7ccc(N8CCOC(C)(C)C8)cc67)C(C(F)F)=N5)CC4)CC3)c21 (some centres unmarked) [I-532]	–	–	> 1000 nM	–	–	–	1 to 10 nM	10 to 100 nM	10 to 100 nM	–
Cn1c(=O)n(C2CCC(=O)NC2=O)c2cccc(CC(=O)N3CC4(CCN(C[C@H]5CC[C@H](n6cc(NC(=O)c7cnn8ccc(N9C[C@H]%10C[C@@H]9CO%10)nc78)c(C(F)F)n6)CC5)CC4)C3)c21 (some centres unmarked) [I-421]	–	–	> 1000 nM	< 10 nM	–	–	< 1 nM	–	–	< 10 nM
Cn1c(=O)n(C2CCC(=O)NC2=O)c2cccc(CCC3CC4(CCN(C[C@H]5CC[C@H](n6cc(NC(=O)c7cnn8ccc(N9C[C@H]%10C[C@@H]9CO%10)nc78)c(C(F)F)n6)CC5)CC4)C3)c21 (some centres unmarked) [I-486]	–	–	> 1000 nM	–	–	–	< 1 nM	< 10 nM	< 10 nM	–
Cn1c(=O)n(C2CCC(=O)NC2=O)c2cccc(CCC(=O)C3CC4(CCN(C[C@H]5CC[C@H](n6cc(NC(=O)c7cnn8ccc(N9C[C@H]%10C[C@@H]9CO%10)nc78)c(C(F)F)n6)CC5)CC4)C3)c21 (some centres unmarked) [I-415]	–	–	> 1000 nM	< 10 nM	–	–	< 1 nM	–	–	< 10 nM
Cn1c(=O)n(C2CCC(=O)NC2=O)c2cccc(C#CCN3CCC4(CC3)CN(C(=O)[C@H]3CC[C@H](n5cc(NC(=O)c6cnn7ccc(N8C[C@H]9C[C@@H]8CO9)nc67)c(C(F)F)n5)CC3)C4)c21 (some centres unmarked) [I-418]	–	–	> 1000 nM	10 to 100 nM	–	–	1 to 10 nM	–	–	10 to 100 nM
Cn1c(=O)n(C2CCC(=O)NC2=O)c2cccc(CC[C@H]3CN(C[C@H]4CC[C@H](n5cc(NC(=O)c6cnn7ccc(N8CCCOCC8)nc67)c(C(F)F)n5)CC4)CCO3)c21 (some centres unmarked) [I-516]	–	–	> 1000 nM	–	–	–	1 to 10 nM	< 10 nM	10 to 100 nM	–
C[C@H](C#Cc1cccc2c1N(C)C(=O)C2C1CCC(=O)NC1=O)OC1CCN(C[C@H]2CC[C@H](n3cc(NC(=O)c4cnn5ccc(N6C[C@H]7C[C@@H]6CO7)nc45)c(C(F)F)n3)CC2)CC1 (some centres unmarked) [I-555]	–	–	> 1000 nM	–	–	–	1 to 10 nM	< 10 nM	< 10 nM	–
CN(CCCOCCCc1cccc2c1n(C)c(=O)n2C1CCC(=O)NC1=O)C[C@H]1CC[C@H](n2cc(NC(=O)c3cnn4ccc(N5CCCCC5)nc34)c(C(F)F)n2)CC1 (some centres unmarked) [I-419]	–	–	> 1000 nM	10 to 100 nM	–	–	1 to 10 nM	–	–	< 10 nM
O=C1CCC(n2c3ccccc3c3c(CCCN4CC5(CCN(C(=O)[C@H]6CC[C@H](n7cc(NC(=O)c8cnn9ccc(N%10C[C@H]%11C[C@@H]%10CO%11)nc89)c(C(F)F)n7)CC6)CC5)C4)ccnc32)C(=O)N1 (some centres unmarked) [I-447]	–	–	> 1000 nM	–	–	–	1 to 10 nM	< 10 nM	10 to 100 nM	–
